The NIST ThermoML archive (doi:10.1016/j.tca.2013.05.017)
Where “and” joins values, the source holds several entries; their conditions need not be identical. Equal values may be shown once.

Test: molar heat capacity at constant pressure
Conditions: 101.33 kPa, Crystal 2, Small (less than 1 g) adiabatic calorimetry

O=S(=O)([O-])[O-].[Sr+2] [sulfuric acid, strontium salt (1:1)]
Conditions | molar heat capacity at constant pressure
145.71 K | 68.41 J/K/mol
145.74 K | 68.47 J/K/mol
146.11 K | 68.55 J/K/mol
148.91 K | 69.29 J/K/mol
148.95 K | 69.42 J/K/mol
149.31 K | 69.49 J/K/mol
150 K | 69.86 J/K/mol
152.12 K | 70.28 J/K/mol
152.16 K | 70.25 J/K/mol
152.52 K | 70.41 J/K/mol
155.34 K | 71.05 J/K/mol
155.38 K | 71.08 J/K/mol
155.74 K | 71.27 J/K/mol
158.56 K | 71.97 J/K/mol
158.6 K | 72 J/K/mol
158.97 K | 72.09 J/K/mol
160 K | 72.51 J/K/mol
161.8 K | 72.79 J/K/mol
161.84 K | 72.83 J/K/mol
162.22 K | 72.92 J/K/mol
165.05 K | 73.58 J/K/mol
165.09 K | 73.59 J/K/mol
165.46 K | 73.73 J/K/mol
168.3 K | 74.28 J/K/mol
168.34 K | 74.31 J/K/mol
168.72 K | 74.49 J/K/mol
170 K | 74.99 J/K/mol
171.55 K | 75.15 J/K/mol
171.6 K | 75.19 J/K/mol
171.99 K | 75.27 J/K/mol
174.82 K | 75.93 J/K/mol
174.86 K | 75.97 J/K/mol
175.25 K | 76.02 J/K/mol
178.09 K | 76.68 J/K/mol
178.13 K | 76.74 J/K/mol
178.53 K | 76.77 J/K/mol
180 K | 77.33 J/K/mol
181.37 K | 77.42 J/K/mol
181.41 K | 77.48 J/K/mol
181.81 K | 77.53 J/K/mol
184.66 K | 78.14 J/K/mol
184.69 K | 78.22 J/K/mol
185.09 K | 78.29 J/K/mol
187.96 K | 78.91 J/K/mol
187.99 K | 78.94 J/K/mol
188.38 K | 78.97 J/K/mol
190 K | 79.65 J/K/mol
191.26 K | 79.72 J/K/mol
191.28 K | 79.71 J/K/mol
191.67 K | 79.8 J/K/mol
194.56 K | 80.51 J/K/mol and 80.47 J/K/mol
194.96 K | 80.64 J/K/mol
197.83 K | 81.24 J/K/mol
197.85 K | 81.22 J/K/mol
198.25 K | 81.33 J/K/mol
200 K | 81.87 J/K/mol
201.09 K | 81.92 J/K/mol
201.14 K | 81.8 J/K/mol
201.53 K | 81.9 J/K/mol
204.35 K | 82.54 J/K/mol
204.42 K | 82.41 J/K/mol
204.81 K | 82.55 J/K/mol
207.6 K | 83.18 J/K/mol
207.7 K | 82.95 J/K/mol
208.08 K | 83.16 J/K/mol
210 K | 83.8 J/K/mol
210.83 K | 83.81 J/K/mol
210.94 K | 83.69 J/K/mol
211.34 K | 83.83 J/K/mol
214.05 K | 84.44 J/K/mol
214.18 K | 84.34 J/K/mol
214.58 K | 84.5 J/K/mol
217.26 K | 85.04 J/K/mol
217.41 K | 84.95 J/K/mol
217.8 K | 85.11 J/K/mol
220 K | 85.76 J/K/mol
220.45 K | 85.67 J/K/mol
220.61 K | 85.61 J/K/mol
221.01 K | 85.74 J/K/mol
223.62 K | 86.31 J/K/mol
223.8 K | 86.22 J/K/mol
224.21 K | 86.36 J/K/mol
226.78 K | 86.94 J/K/mol
226.98 K | 86.85 J/K/mol
227.39 K | 86.96 J/K/mol
229.93 K | 87.58 J/K/mol
230 K | 87.75 J/K/mol
230.13 K | 87.48 J/K/mol
230.55 K | 87.57 J/K/mol
233.05 K | 88.24 J/K/mol
233.27 K | 88.13 J/K/mol
233.75 K | 88.27 J/K/mol
236.17 K | 88.83 J/K/mol
236.39 K | 88.63 J/K/mol
236.88 K | 88.89 J/K/mol
239.32 K | 89.46 J/K/mol
239.54 K | 89.39 J/K/mol
239.99 K | 89.5 J/K/mol
240 K | 89.75 J/K/mol
242.4 K | 90.05 J/K/mol
242.63 K | 89.95 J/K/mol
243.09 K | 90.06 J/K/mol
245.47 K | 90.64 J/K/mol
245.71 K | 90.56 J/K/mol
246.17 K | 90.67 J/K/mol
248.53 K | 91.22 J/K/mol
248.77 K | 91.15 J/K/mol
249.24 K | 91.23 J/K/mol
250 K | 91.7 J/K/mol
251.58 K | 91.85 J/K/mol
251.81 K | 91.78 J/K/mol
252.29 K | 91.85 J/K/mol
254.61 K | 92.43 J/K/mol
254.84 K | 92.37 J/K/mol
255.33 K | 92.47 J/K/mol
257.63 K | 93 J/K/mol
257.87 K | 92.94 J/K/mol
258.36 K | 93.06 J/K/mol
260 K | 93.66 J/K/mol
260.65 K | 93.58 J/K/mol
260.88 K | 93.56 J/K/mol
261.38 K | 93.65 J/K/mol
263.66 K | 94.16 J/K/mol
263.89 K | 94.13 J/K/mol
264.39 K | 94.26 J/K/mol
266.66 K | 94.77 J/K/mol
266.89 K | 94.7 J/K/mol
267.4 K | 94.85 J/K/mol
269.66 K | 95.39 J/K/mol
269.89 K | 95.3 J/K/mol
270 K | 95.59 J/K/mol
270.4 K | 95.47 J/K/mol
272.64 K | 95.96 J/K/mol
272.87 K | 95.81 J/K/mol
273.15 K | 96.15 J/K/mol
273.39 K | 95.92 J/K/mol
275.63 K | 96.38 J/K/mol
275.85 K | 96.25 J/K/mol
276.38 K | 96.39 J/K/mol
278.61 K | 96.87 J/K/mol
278.83 K | 96.75 J/K/mol
279.36 K | 96.87 J/K/mol
280 K | 97.3 J/K/mol
281.59 K | 97.38 J/K/mol
281.8 K | 97.23 J/K/mol
282.43 K | 97.36 J/K/mol
284.56 K | 97.83 J/K/mol
284.76 K | 97.73 J/K/mol
285.4 K | 97.91 J/K/mol
287.65 K | 98.39 J/K/mol
287.81 K | 98.24 J/K/mol
288.36 K | 98.43 J/K/mol
290 K | 98.96 J/K/mol
290.61 K | 98.91 J/K/mol
290.76 K | 98.75 J/K/mol
291.32 K | 98.96 J/K/mol
293.57 K | 99.37 J/K/mol
293.71 K | 99.22 J/K/mol
294.28 K | 99.43 J/K/mol
296.52 K | 99.84 J/K/mol
296.64 K | 99.69 J/K/mol
297.22 K | 99.88 J/K/mol
298.15 K | 100.3 J/K/mol
299.46 K | 100.34 J/K/mol
299.56 K | 100.14 J/K/mol
300 K | 100.59 J/K/mol
300.17 K | 100.26 J/K/mol
302.4 K | 100.79 J/K/mol
302.48 K | 100.58 J/K/mol
303.1 K | 100.8 J/K/mol
305.33 K | 101.19 J/K/mol
305.39 K | 101 J/K/mol
306.03 K | 101.22 J/K/mol
308.26 K | 101.58 J/K/mol
308.3 K | 101.41 J/K/mol
308.95 K | 101.59 J/K/mol
310 K | 102.03 J/K/mol
311.18 K | 102.01 J/K/mol
311.19 K | 101.81 J/K/mol
311.87 K | 101.99 J/K/mol
314.08 K | 102.29 J/K/mol
314.09 K | 102.44 J/K/mol
314.78 K | 102.4 J/K/mol
316.97 K | 102.72 J/K/mol
316.99 K | 102.82 J/K/mol
317.69 K | 102.79 J/K/mol
319.85 K | 103.14 J/K/mol
319.89 K | 103.15 J/K/mol
320 K | 103.44 J/K/mol
320.59 K | 103.18 J/K/mol
322.73 K | 103.57 J/K/mol
322.78 K | 103.57 J/K/mol
